Assay results taken from US20160251342A1, “ALDEHYDE DERIVATIVE OF SUBSTITUTED OXAZOLIDINONES” (WANBURY LTD., priority 2012, published 2016).

Columns and labels:
plasma protein [1] = experiment: Plasma protein binding (dialysis), human; assay type: in vitro ADME
Method: (§1) A compound solution (1 mM in DMSO) (5 μL), according to the invention is added to the respective plasma matrices of rat or human or mouse (1 ml).
(§2) Add 150 μl of phosphate buffer to receiving side of the dialysis well. […] Precipitate with Acetonitrile and dilute samples prior to analysis in 1.5 ml polypropylene tubes. Remove 50 μl from the sample side of dialysis well and add 50 μl of phosphate buffer+300 μl of acetonitrile containing IS. Remove 50 μl from the buffer side of the dialysis well and add 50 μl of respective matrix plasma+300 μl of ACN. Then vortexed and centrifuged for 5 min, and supernatant is taken and injected into LCMS.
(§3) Different test concentration ranging from 0.1 μM to 20 μM are made in methanol:water (90:10). Test solutions are added to the premixed matrix containing plasma:phosphate buffer (50:50). Precipitate with 300 μl of ice cold acetonitrile containing IS, vortexes and centrifuged. Supernatant is taken and injected into LCMS.
(§4) Percentage of plasma protein binding was obtained via Equation (2): % Fraction unbound=(concentration on the buffer side/concentration on the sample side)*100

[2] = Stability in simulating gastric fluid (SGF); assay type: physicochemical; settings: SGF pH 2.2, up to 120 min
Method: On completion of incubation period, the solution is centrifuged and supernatant is taken. To the supernatant, ice cold acetonitrile containing IS is added, vortexed and injected into LCMS/MS.
API 4000, ESI Agilent 1100 column: Gemini Nx 100 mm×4.6 mm 5.μ; column temperature: 30° C.; eluent A: 0.1% formic acid in water, eluent B: acetonitrile; gradient: 0-2.5 min 95% A, 5% B; 2.5-2.6 min 5% A, 95% B; 2.6-4.2 min 95% A, 5% B; flow rate: 0.8 ml/min; ESI. Q1:464.098, Q3:144.255
SIF/SGF: 2.38 g of SIF original powder (biorelavant media) is dissolved in 1 L of milliQ water. The pH of the solution is adjusted for SIF (7.4) and SGF (2.2) with 0.1N HCl. The ratios of the peak areas (F) at the respective time points in relation to the peak areas at the starting time are calculated. […] The peak area (F) is directly correlated to the amount of test compound which is quantified by the LC MS method.
In simulating intestinal and gastric fluid, the area of the formula B compared with zero minute area to 120 min.

plasma protein [3] = experiment: Plasma protein binding (dialysis), mouse; assay type: in vitro ADME
Method: as §1, §2, §3, §4

[4] = Intravenous and oral excretion profile in Wistar rats; assay type: in vivo; settings: after i.v. administration, first measurement point
Method: On the day before administration of the substance, a catheter for obtaining blood is implanted in the jugular vein of the experimental animals (male Wistar rats, body weight 200-250 g) under Isoflurane. anesthesia.
Urine and faeces are taken collected from metabolic cages over the course of 144 h after administration of the substance. The administration volume is 10 ml/kg for oral and 1 ml/kg for IV in male Wistar rats. Intravenous administration is via a formulation of 2% N—N Dimethyl acetamide/ethanol 10%/PEG400(30%)/water for IV injection (58%) and via Tween80/PEG400/sterile water in the case of oral administration. Urine and faeces collection is 0-4, 4-8, 8-24, 24-48, 48-72, 72-96, 96-120, 120-144 in the case of IV and for oral administration.
Urine and faeces was processed and IS containing Acetonitrile is added to a defined urine/faeces and precipitated. After centrifugation, compound formula (B) and, where appropriate, known cleavage products of the compound formula (B) in the supernatant are determined quantitatively using a suitable LC/MS-MS method.
The measured urine and faeces concentrations are used to calculate parameters of the test substance and of the active ingredient compound (A) liberated there from, such as AUC and Cmax.
Acetonitrile containing IS is added to the study samples, calibration samples and QCs, and the protein is precipitated using acetonitrile. […]

caco2 system = experiment: Permeability in caco2 system; assay type: in vitro ADME; settings: caco2, efflux >2
[5] = Permeability in caco2 system; assay type: in vitro ADME; settings: human, Caco-2; caco2
CYP isoforms = experiment: CYP inhibition studies, overall interpretation; assay type: in vitro ADME, humans; settings: compound formula-B with other drug when administered
Method: The ability of substances to inhibit CYP1A2, CYP2C9, CYP2D6, CYP2C19, CYP2J2 and CYP3A4 in humans was investigated with pooled human liver microsomes as enzyme source in the presence of standard substrates (see below) which form CYP-isoform-specific metabolites.
Standard incubation mixtures comprise NADPH and substrates in 100 mM phosphate buffer (pH 7.4) in a total volume of 200 μl. Test compound are dissolved in acetonitrile. Incubated with pooled human liver microsomes at 37° C. for a defined time. The reactions are stopped by adding 100 μl of acetonitrile in which a suitable internal standard is always present. Precipitated proteins are removed by centrifugation, and the supernatants analyzed by LC-MS/MS. The data represents the extrapolated IC50 (μM) concentration derived from 3 μM.
This is an essential parameter to gauge drug-drug interactions.

plasma protein [6] = experiment: Plasma protein binding (dialysis), rat; assay type: in vitro ADME
Method: as §1, §2, §3, §4

O=CN(C[C@H]1CN(c2ccc(N3CCOCC3=O)cc2)C(=O)O1)C(=O)c1ccc(Cl)s1 [compound formula (B), 5-chloro-N-formyl-N-({(5S)-2-oxo-3-[4-(3-oxomorpholin-4-yl)phenyl]-1,3-oxazolidin-5-yl}methyl)thiophene-2-carboxamide]
Observation: amount of test product (plasma protein [1]): Not quantificable amount of test
Observation: formed Rivaroxaban bound to plasma protein (plasma protein [1]): Rivaroxaban found to be High
Conclusion (stability in SGF) [2]: is stable
Observation: amount of test product (plasma protein [3]): Not quantificable amount of test
Observation: formed Rivaroxaban bound to plasma protein (plasma protein [3]): moderate-High bound to plasma
Detectability of unchanged test substance in urine and faeces [4]: no longer detectable
Interpretation: Pgp substrate (caco2 system): observed to be a Pgp substrate.
Papp A→B [5]: 17.4 ×10⁻⁶ cm/s
Interpretation: drug-drug interaction (CYP isoforms): Low drug-drug interaction
Observation: amount of test product (plasma protein [6]): Not quantificable amount of test
Observation: formed Rivaroxaban bound to plasma protein (plasma protein [6]; phrase continues 'High bound' in next line): Rivaroxaban found to be moderate-
